Structures can show the parent of a compound that is named as a salt.
Assay: Thermal stability of Samples 1-4 at 60° C. (HPLC content and impurity detection)
Type: physicochemical
Protocol: The thermal stability of samples 1˜4 of example 1 at 60° C. is provided below:
Impurity detection method: • Mobile phase A: accurately weigh 3.17 g of sodium dihydrogen phosphate, add 1 L of pure water to dissolve, adjust the pH of the solution to 3.20 with phosphoric acid. Mobile Phase B: Acetonitrile. • Instrument ID: HPLC. • Column ID: YMC-Triart C18 250*4.6 5 μm. • Detection wavelength: 230 nm. • Flow rate: 1.0 mL/min. • Running time: 35 min.

| SMILES | stability of BD in the formulation (at pH 4.0 and 4.5, pH adjusted with citric acid) | stability of OH in the formulation (at pH 5.5 and pH 4.0, pH adjusted with citric acid) |
| --- | --- | --- |
| CCCC1O[C@@H]2C[C@H]3[C@@H]4CCC5=CC(=O)C=C[C@]5(C)[C@H]4[C@@H](O)C[C@]3(C)[C@]2(C(=O)CO)O1 (stereo partly drawn) [BD, 11β,21-dihydroxy-16α,17α-(butylidenebis(oxy))pregna-1,4-diene-3,20-dione] | relatively stable |  |
| COc1ccc(CC(C)(C)NC[C@H](O)c2cc(O)cc3c2OCC(=O)N3)cc1 [OH, Olodaterol hydrochloride] |  | relatively stable |

Reference: patent US20220031712A1, “PREPARATION OF A PHARMACEUTICAL COMPOSITION OF OLODATEROL AND BUDESONIDE” (priority 2020, published 2022)
